Values quoted from earlier work in US20110046396A1, “POLYMORPHIC FORMS OF FLUVASTATIN SODIUM AND PROCESS FOR PREPARING THE SAME” (JUBILANT ORGANOSYS LIMITED, priority 2005, published 2011).

Conditions: compared with Form A or the amorphous form of Fluvastatin sodium; described in U.S. Pat. No. 6,124,340

## CC(C)n1c(/C=C/[C@H](O)C[C@H](O)CC(=O)[O-])c(-c2ccc(F)cc2)c2ccccc21.[Na+] (racemic) [Form B, (±)-7-(3-(4-fluorophenyl)-1-(1-methylethyl)-1H-indol-2-yl)-3,5-dihydroxy-6-heptenoic acid monosodium salt]
  hygroscopicity: less hygroscopic than Form A or the amorphous form
